Measured values taken from the kinase profiling compilation of Christmann-Franck et al. (2016).
“And” between values parts separate entries of the source, which are not always exact repeats. Equal entries are not always repeated.

Tests used:
Experiment in all cases: radiometric filter-binding kinase assay, Kinase HotSpot
Settings in all cases: compound 0.5 µM; ATP 10 µM
TSSK2 (human) = TSSK2 (human) (UniProt Q96PF2)
SRC (human) = SRC (human) (UniProt P12931)
CAMKK2 (human) = CAMKK2 (human) (UniProt Q96RR4)
NEK2 (human) = NEK2 (human) (UniProt P51955)
CAMK1D (human) = CAMK1D (human) (UniProt Q8IU85)
WNK3 (human) = WNK3 (human) (UniProt Q9BYP7)
NEK3 (human) = NEK3 (human) (UniProt P51956)
EPHA2 (human) = EPHA2 (human) (UniProt P29317)
SIK2 (human) = SIK2 (human) (UniProt Q9H0K1)
NTRK1 (human) = NTRK1 (human) (UniProt P04629)
MAPK12 (human) = MAPK12 (human) (UniProt P53778)
CDK5 CDK5R1 p35 (human) = CDK5 CDK5R1 p35 (human) (UniProt Q00535+Q15078)
PHKG1 (human) = PHKG1 (human) (UniProt Q16816)
PAK6 (human) = PAK6 (human) (UniProt Q9NQU5)
Sequence of PAK6 (human) (Q9NQU5 whole entry, looked up): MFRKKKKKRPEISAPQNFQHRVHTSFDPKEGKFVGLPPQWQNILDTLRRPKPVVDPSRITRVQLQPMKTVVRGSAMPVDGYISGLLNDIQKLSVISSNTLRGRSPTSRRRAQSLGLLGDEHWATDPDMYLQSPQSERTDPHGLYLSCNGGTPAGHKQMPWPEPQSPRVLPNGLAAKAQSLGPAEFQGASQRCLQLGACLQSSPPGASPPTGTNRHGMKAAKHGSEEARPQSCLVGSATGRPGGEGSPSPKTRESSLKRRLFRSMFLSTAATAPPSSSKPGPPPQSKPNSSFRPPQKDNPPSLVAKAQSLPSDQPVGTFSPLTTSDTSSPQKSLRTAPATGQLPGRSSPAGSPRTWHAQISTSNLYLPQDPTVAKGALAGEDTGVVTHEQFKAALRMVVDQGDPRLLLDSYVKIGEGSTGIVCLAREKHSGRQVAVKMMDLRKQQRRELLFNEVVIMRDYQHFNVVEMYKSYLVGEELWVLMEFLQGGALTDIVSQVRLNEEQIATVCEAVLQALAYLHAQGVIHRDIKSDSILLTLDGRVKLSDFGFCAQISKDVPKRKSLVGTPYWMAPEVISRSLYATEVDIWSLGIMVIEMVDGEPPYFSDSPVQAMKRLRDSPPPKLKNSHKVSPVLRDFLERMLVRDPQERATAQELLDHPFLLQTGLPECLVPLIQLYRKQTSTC

MUSK (human) = MUSK (human) (UniProt O15146)
SGK3 (human) = SGK3 (human) (UniProt Q96BR1)
SRPK2 (human) = SRPK2 (human) (UniProt P78362)
Sequence of SRPK2 (human) (P78362 whole entry, looked up): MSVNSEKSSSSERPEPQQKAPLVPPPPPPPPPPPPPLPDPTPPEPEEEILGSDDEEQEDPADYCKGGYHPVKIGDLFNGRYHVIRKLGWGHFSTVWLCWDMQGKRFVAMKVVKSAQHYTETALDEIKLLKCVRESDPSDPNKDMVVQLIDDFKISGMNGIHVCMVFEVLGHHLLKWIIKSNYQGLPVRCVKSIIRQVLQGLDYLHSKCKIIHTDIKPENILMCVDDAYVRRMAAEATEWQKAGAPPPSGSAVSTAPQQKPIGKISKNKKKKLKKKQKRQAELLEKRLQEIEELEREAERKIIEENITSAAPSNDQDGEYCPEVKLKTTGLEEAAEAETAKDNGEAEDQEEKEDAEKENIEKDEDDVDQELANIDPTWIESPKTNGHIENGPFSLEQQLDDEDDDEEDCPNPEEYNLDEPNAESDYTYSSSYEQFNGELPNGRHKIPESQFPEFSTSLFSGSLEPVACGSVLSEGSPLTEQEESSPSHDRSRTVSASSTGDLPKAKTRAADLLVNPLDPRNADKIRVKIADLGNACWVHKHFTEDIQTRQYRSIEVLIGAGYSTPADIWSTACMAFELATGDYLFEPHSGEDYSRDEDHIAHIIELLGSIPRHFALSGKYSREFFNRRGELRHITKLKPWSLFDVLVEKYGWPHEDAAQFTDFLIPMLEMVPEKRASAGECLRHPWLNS

WEE1 (human) = WEE1 (human) (UniProt P30291)
RPS6KA3 KD1 KD2 (human) = RPS6KA3 KD1 KD2 (human) (UniProt P51812)
DAPK1 (human) = DAPK1 (human) (UniProt P53355)
STK10 (human) = STK10 (human) (UniProt O94804)
MET (human) = MET (human) (UniProt P08581)
PKN2 (human) = PKN2 (human) (UniProt Q16513)
MAP2K1 (human) = MAP2K1 (human) (UniProt Q02750)
GRK7 (human) = GRK7 (human) (UniProt Q8WTQ7)
CDC42BPA (human) = CDC42BPA (human) (UniProt Q5VT25)
Sequence of CDC42BPA (human) (Q5VT25 whole entry, looked up): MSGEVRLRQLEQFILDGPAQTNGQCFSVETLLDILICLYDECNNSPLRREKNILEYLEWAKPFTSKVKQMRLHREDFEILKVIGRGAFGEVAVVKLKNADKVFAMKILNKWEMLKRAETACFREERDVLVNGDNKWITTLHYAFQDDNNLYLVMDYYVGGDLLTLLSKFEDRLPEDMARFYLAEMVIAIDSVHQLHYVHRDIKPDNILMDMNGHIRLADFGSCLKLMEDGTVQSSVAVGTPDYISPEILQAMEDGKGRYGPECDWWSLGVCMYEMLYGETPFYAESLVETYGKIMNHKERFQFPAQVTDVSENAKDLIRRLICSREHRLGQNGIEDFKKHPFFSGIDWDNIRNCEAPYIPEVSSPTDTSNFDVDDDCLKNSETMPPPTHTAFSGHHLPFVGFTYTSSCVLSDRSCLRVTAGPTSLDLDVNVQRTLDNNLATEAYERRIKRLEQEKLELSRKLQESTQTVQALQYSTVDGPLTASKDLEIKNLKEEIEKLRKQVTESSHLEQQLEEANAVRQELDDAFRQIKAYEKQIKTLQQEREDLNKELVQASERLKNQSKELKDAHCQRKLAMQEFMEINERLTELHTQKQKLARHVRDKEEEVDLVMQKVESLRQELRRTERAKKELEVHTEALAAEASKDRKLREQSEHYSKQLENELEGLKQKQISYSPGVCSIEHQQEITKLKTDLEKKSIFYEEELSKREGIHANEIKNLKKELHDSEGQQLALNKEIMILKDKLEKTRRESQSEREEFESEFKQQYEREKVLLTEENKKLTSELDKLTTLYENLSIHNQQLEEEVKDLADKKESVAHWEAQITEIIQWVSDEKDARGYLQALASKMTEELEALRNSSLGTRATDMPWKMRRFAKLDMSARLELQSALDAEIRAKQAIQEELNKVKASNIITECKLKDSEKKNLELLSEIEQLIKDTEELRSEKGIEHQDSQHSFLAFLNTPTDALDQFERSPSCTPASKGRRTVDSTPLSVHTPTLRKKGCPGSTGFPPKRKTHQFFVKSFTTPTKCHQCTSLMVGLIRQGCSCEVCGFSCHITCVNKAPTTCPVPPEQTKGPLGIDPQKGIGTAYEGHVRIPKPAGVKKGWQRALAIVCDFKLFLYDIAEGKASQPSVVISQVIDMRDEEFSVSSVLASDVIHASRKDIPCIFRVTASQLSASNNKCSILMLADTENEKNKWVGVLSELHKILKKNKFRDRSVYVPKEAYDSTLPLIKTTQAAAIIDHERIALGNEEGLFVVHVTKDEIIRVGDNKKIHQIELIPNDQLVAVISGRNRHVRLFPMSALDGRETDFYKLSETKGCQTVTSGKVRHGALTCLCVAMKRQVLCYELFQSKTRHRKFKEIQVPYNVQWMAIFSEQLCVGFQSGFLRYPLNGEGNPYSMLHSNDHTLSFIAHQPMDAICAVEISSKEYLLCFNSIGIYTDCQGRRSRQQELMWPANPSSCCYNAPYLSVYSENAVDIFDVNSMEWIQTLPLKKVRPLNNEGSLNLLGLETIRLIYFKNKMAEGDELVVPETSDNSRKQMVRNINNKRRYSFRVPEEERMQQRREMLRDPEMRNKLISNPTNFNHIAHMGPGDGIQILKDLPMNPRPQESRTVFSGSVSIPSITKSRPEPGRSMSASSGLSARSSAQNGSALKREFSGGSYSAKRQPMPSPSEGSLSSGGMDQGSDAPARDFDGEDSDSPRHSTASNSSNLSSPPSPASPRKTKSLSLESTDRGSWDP

VRK1 (human) = VRK1 (human) (UniProt Q99986)
TBK1 (human) = TBK1 (human) (UniProt Q9UHD2)
Sequence of TBK1 (human) (Q9UHD2 whole entry, looked up): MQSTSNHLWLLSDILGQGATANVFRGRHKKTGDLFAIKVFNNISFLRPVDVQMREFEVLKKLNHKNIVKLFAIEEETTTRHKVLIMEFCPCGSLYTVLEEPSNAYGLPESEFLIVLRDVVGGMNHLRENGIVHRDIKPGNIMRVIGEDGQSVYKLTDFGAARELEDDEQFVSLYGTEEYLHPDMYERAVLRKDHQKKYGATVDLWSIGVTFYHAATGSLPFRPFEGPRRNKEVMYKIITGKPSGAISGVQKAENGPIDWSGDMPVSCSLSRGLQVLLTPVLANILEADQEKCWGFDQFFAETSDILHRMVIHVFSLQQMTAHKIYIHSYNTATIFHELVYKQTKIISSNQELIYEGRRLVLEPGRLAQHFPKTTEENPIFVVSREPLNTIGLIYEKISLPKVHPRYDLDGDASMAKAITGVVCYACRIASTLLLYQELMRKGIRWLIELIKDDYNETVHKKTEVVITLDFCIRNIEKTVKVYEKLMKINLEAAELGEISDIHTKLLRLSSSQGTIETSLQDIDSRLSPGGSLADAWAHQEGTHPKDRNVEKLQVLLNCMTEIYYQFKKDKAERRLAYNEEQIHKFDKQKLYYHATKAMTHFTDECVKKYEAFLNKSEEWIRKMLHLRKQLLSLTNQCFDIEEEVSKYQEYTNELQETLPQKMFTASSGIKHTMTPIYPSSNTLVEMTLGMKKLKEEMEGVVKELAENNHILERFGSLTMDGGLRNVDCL

PTK6 (human) = PTK6 (human) (UniProt Q13882)
MAPK3 (human) = MAPK3 (human) (UniProt P27361)
PLK3 (human) = PLK3 (human) (UniProt Q9H4B4)
PRKCE (human) = PRKCE (human) (UniProt Q02156)
PASK (human) = PASK (human) (UniProt Q96RG2)
ULK1 (human) = ULK1 (human) (UniProt O75385)
HIPK2 (human) = HIPK2 (human) (UniProt Q9H2X6)
TGFBR2 (human) = TGFBR2 (human) (UniProt P37173)
DYRK4 (human) = DYRK4 (human) (UniProt Q9NR20)
FGFR4 (human) = FGFR4 (human) (UniProt P22455)
CSNK2A1 (human) = CSNK2A1 (human) (UniProt P68400)
Sequence of CSNK2A1 (human) (P68400 whole entry, looked up): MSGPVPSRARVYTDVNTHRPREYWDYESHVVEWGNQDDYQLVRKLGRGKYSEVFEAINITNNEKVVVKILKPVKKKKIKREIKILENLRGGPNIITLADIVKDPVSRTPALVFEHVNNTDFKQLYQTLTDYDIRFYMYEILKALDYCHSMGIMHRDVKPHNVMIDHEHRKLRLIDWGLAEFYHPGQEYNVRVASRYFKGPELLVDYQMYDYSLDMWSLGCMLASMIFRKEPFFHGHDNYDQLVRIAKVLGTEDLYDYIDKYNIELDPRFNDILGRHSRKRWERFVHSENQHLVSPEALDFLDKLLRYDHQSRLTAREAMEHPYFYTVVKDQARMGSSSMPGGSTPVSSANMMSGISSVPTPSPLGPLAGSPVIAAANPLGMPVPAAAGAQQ

CAMK1G (human) = CAMK1G (human) (UniProt Q96NX5)
PRKD2 (human) = PRKD2 (human) (UniProt Q9BZL6)
Sequence of PRKD2 (human) (Q9BZL6 whole entry, looked up): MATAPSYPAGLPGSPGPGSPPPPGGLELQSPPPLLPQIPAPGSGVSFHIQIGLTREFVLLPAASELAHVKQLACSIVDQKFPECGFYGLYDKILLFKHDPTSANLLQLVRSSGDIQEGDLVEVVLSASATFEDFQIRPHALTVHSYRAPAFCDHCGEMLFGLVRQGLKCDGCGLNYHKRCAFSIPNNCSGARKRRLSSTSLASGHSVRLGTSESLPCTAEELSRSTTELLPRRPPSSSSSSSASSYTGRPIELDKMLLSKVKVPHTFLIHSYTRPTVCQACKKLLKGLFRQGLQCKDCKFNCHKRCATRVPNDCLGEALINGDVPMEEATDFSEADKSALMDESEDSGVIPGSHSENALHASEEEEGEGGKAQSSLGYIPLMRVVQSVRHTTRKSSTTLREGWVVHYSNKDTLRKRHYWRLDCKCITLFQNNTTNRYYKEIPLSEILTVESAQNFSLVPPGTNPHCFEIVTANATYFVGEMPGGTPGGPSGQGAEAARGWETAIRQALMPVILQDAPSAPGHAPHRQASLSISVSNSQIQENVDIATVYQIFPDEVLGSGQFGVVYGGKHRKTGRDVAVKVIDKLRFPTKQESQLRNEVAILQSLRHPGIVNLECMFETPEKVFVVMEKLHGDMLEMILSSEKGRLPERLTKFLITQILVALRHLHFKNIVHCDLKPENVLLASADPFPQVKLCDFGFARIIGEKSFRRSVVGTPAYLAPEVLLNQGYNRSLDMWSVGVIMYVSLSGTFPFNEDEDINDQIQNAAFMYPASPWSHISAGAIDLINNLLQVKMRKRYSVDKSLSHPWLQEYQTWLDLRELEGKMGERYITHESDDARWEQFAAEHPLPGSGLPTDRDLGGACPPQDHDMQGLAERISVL

LYN (human) = LYN (human) (UniProt P07948)

Cc1nc2cc3nc(-c4cccs4)cnc3cc2n1C
residual activity (TSSK2 (human)): 98.2%
residual activity (SRC (human)): 89.9%
residual activity (CAMKK2 (human)): 112%
residual activity (NEK2 (human)): 97%
residual activity (CAMK1D (human)): 107%
residual activity (WNK3 (human)): 96.9%
residual activity (NEK3 (human)): 108%
residual activity (EPHA2 (human)): 107%
residual activity (SIK2 (human)): 112%
residual activity (NTRK1 (human)): 113%
residual activity (MAPK12 (human)): 103%
residual activity (CDK5 CDK5R1 p35 (human)): 107%
residual activity (PHKG1 (human)): 98.2%
residual activity (PAK6 (human)): 96.6%
residual activity (MUSK (human)): 90.6%
residual activity (SGK3 (human)): 105%
residual activity (SRPK2 (human)): 104%
residual activity (WEE1 (human)): 86.9%
residual activity (RPS6KA3 KD1 KD2 (human)): 96.3%
residual activity (DAPK1 (human)): 99.5%
residual activity (STK10 (human)): 94.7%
residual activity (MET (human)): 111%
residual activity (PKN2 (human)): 71%
residual activity (MAP2K1 (human)): 89.7%
residual activity (GRK7 (human)): 96.6%
residual activity (CDC42BPA (human)): 109%
residual activity (VRK1 (human)): 95.6%
residual activity (TBK1 (human)): 93%
residual activity (PTK6 (human)): 88.6%
residual activity (MAPK3 (human)): 117%
residual activity (PLK3 (human)): 95.6%
residual activity (PRKCE (human)): 108%
residual activity (PASK (human)): 110%
residual activity (ULK1 (human)): 84.6%
residual activity (HIPK2 (human)): 107%
residual activity (TGFBR2 (human)): 89.2%
residual activity (DYRK4 (human)): 104%
residual activity (FGFR4 (human)): 96.3%
residual activity (CSNK2A1 (human)): 101%
residual activity (CAMK1G (human)): 106%
residual activity (PRKD2 (human)): 106%
residual activity (LYN (human)): 117% and 97.8%

O=C1NC(=O)/C(=C\c2ccc3nccnc3c2)S1
residual activity (TSSK2 (human)): 88.7%
residual activity (SRC (human)): 102%
residual activity (CAMKK2 (human)): 72.9%
residual activity (NEK2 (human)): 92.2%
residual activity (CAMK1D (human)): 102%
residual activity (WNK3 (human)): 85.8%
residual activity (NEK3 (human)): 97.3%
residual activity (EPHA2 (human)): 99.9%
residual activity (SIK2 (human)): 102%
residual activity (NTRK1 (human)): 94.2%
residual activity (MAPK12 (human)): 96.6%
residual activity (CDK5 CDK5R1 p35 (human)): 97.9%
residual activity (PHKG1 (human)): 91.3%
residual activity (PAK6 (human)): 107%
residual activity (MUSK (human)): 16.2%
residual activity (SGK3 (human)): 94.3%
residual activity (SRPK2 (human)): 98.2%
residual activity (WEE1 (human)): 83.1%
residual activity (RPS6KA3 KD1 KD2 (human)): 101%
residual activity (DAPK1 (human)): 105%
residual activity (STK10 (human)): 90.5%
residual activity (MET (human)): 91.2%
residual activity (PKN2 (human)): 107%
residual activity (MAP2K1 (human)): 89.5%
residual activity (GRK7 (human)): 99.8%
residual activity (CDC42BPA (human)): 93.1%
residual activity (VRK1 (human)): 94.9%
residual activity (TBK1 (human)): 90.6%
residual activity (PTK6 (human)): 95.1%
residual activity (MAPK3 (human)): 87.8%
residual activity (PLK3 (human)): 97.7%
residual activity (PRKCE (human)): 101%
residual activity (PASK (human)): 87.7%
residual activity (ULK1 (human)): 100%
residual activity (HIPK2 (human)): 101%
residual activity (TGFBR2 (human)): 108%
residual activity (DYRK4 (human)): 96.5%
residual activity (FGFR4 (human)): 98%
residual activity (CSNK2A1 (human)): 3.08%
residual activity (CAMK1G (human)): 105%
residual activity (PRKD2 (human)): 104%
residual activity (LYN (human)): 99.2% and 99.6%

O=C(Nc1cccc(Nc2cc(Nc3cccc(C(F)(F)F)c3)ncn2)c1)C1CC1
residual activity (TSSK2 (human)): 103%
residual activity (SRC (human)): 102%
residual activity (CAMKK2 (human)): 98.5%
residual activity (NEK2 (human)): 99.5%
residual activity (CAMK1D (human)): 100%
residual activity (WNK3 (human)): 100%
residual activity (NEK3 (human)): 94.4%
residual activity (EPHA2 (human)): 104%
residual activity (SIK2 (human)): 89.4%
residual activity (NTRK1 (human)): 99.6%
residual activity (MAPK12 (human)): 89.2%
residual activity (CDK5 CDK5R1 p35 (human)): 99.5%
residual activity (PHKG1 (human)): 100%
residual activity (PAK6 (human)): 99.3%
residual activity (MUSK (human)): 113%
residual activity (SGK3 (human)): 106%
residual activity (SRPK2 (human)): 92%
residual activity (WEE1 (human)): 94%
residual activity (RPS6KA3 KD1 KD2 (human)): 105%
residual activity (DAPK1 (human)): 94.7%
residual activity (STK10 (human)): 95.7%
residual activity (MET (human)): 103%
residual activity (PKN2 (human)): 95.9%
residual activity (MAP2K1 (human)): 98.9%
residual activity (GRK7 (human)): 99%
residual activity (CDC42BPA (human)): 77.7%
residual activity (VRK1 (human)): 94%
residual activity (TBK1 (human)): 99%
residual activity (PTK6 (human)): 98.4%
residual activity (MAPK3 (human)): 101%
residual activity (PLK3 (human)): 99.1%
residual activity (PRKCE (human)): 89.2%
residual activity (PASK (human)): 98.3%
residual activity (ULK1 (human)): 100%
residual activity (HIPK2 (human)): 107%
residual activity (TGFBR2 (human)): 105%
residual activity (DYRK4 (human)): 98%
residual activity (FGFR4 (human)): 102%
residual activity (CSNK2A1 (human)): 92.6%
residual activity (CAMK1G (human)): 96.9%
residual activity (PRKD2 (human)): 103%
residual activity (LYN (human)): 102% and 99.1%

CCN(CC)CCCCN1c2ccccc2Oc2ccc(Cl)cc21
residual activity (TSSK2 (human)): 103%
residual activity (SRC (human)): 106%
residual activity (CAMKK2 (human)): 105%
residual activity (NEK2 (human)): 101%
residual activity (CAMK1D (human)): 107%
residual activity (WNK3 (human)): 108%
residual activity (NEK3 (human)): 103%
residual activity (EPHA2 (human)): 106%
residual activity (SIK2 (human)): 111%
residual activity (NTRK1 (human)): 99.8%
residual activity (MAPK12 (human)): 97.4%
residual activity (CDK5 CDK5R1 p35 (human)): 90.3%
residual activity (PHKG1 (human)): 96.5%
residual activity (PAK6 (human)): 102%
residual activity (MUSK (human)): 103%
residual activity (SGK3 (human)): 101%
residual activity (SRPK2 (human)): 109%
residual activity (WEE1 (human)): 92.7%
residual activity (RPS6KA3 KD1 KD2 (human)): 98.6%
residual activity (DAPK1 (human)): 76.6%
residual activity (STK10 (human)): 97.1%
residual activity (MET (human)): 105%
residual activity (PKN2 (human)): 72.4%
residual activity (MAP2K1 (human)): 98.1%
residual activity (GRK7 (human)): 96.2%
residual activity (CDC42BPA (human)): 111%
residual activity (VRK1 (human)): 101%
residual activity (TBK1 (human)): 86.3%
residual activity (PTK6 (human)): 95%
residual activity (MAPK3 (human)): 111%
residual activity (PLK3 (human)): 102%
residual activity (PRKCE (human)): 109%
residual activity (PASK (human)): 76.6%
residual activity (ULK1 (human)): 99.8%
residual activity (HIPK2 (human)): 118%
residual activity (TGFBR2 (human)): 96%
residual activity (DYRK4 (human)): 100%
residual activity (FGFR4 (human)): 92.6%
residual activity (CSNK2A1 (human)): 96.2%
residual activity (CAMK1G (human)): 99.2%
residual activity (PRKD2 (human)): 105%
residual activity (LYN (human)): 105% and 115%
